Data set [1] relates to SK-OV3 ovarian cancer cell line. Put plainly: In vitro cytotoxicity, SK-OV3. Format: cell-based. The conditions noted are these: average ± SD, n = 3-4. On the procedure: (§1) In order to evaluate the anticancer activity of the cyclotriphosphazene-taxol conjugates of the present invention, in vitro cytotoxicity of the representative compound of Example 1 was assayed both in saline and in pure water according to a standard testing procedure (Y. J. Jun, et al., J. Inorg. Biochem. (2005) 99:1593-1601), and the test results are shown in Table 1 below.

Data set [2] concerns MDA-MB-231 breast cancer cell line. Put plainly: In vitro cytotoxicity, MDA-MB-231. To be noted: average ± SD, n = 3-4. It counts as cell-based. On the procedure: as §1
The subject of data set [3] is A-431. Put plainly: In vitro cytotoxicity, A-431. To be noted: average ± SD, n = 3-4. Format: cell-based. On the procedure:
as §1

Data set [4] deals with MCF-7 breast cancer cell line. Kind of data set: In vitro cytotoxicity, MCF-7. It counts as cell-based. To be noted: average ± SD, n = 3-4. On the procedure:
as §1

The nature of data set [5]: Blood metabolism study in rats (HPLC of blood samples). It counts as in vivo, male Sprague-Dawley rats. To be noted: rat. Here is the method:
To a group consisting of 4 male Sprague-Dawley rats (270-300 g) was administered the compound of Example 2 dissolved in a PBS solution at a concentration of 6.67 mg/ml by intravenous infusion with a dosage of 5 mg/kg for 3 minutes. After the drug administration, blood (100 μl) samples were taken from each rat for 48 hours at 0, 0.08, 0.5, 1, 2, 3, 4, 6, 8, 12, 24, 36 and 48 hours post injection, and the samples were analyzed with HPLC, and the results are presented in Table 2 below.

Data set [6] in a line: DLS measurement of micelle formation and micelle size. To be noted: 0.1 to 0.5% in distilled water, Malvern Zetasizer (Nano-ZS). Format: physicochemical. On the procedure: It was determined by a DLS (dynamic light scattering) method whether the cyclotriphosphazene-taxol conjugates prepared according to the present invention are aggregated in aqueous solution through interaction of the hydrophobic oligopeptide groups, so as to form micelles, according to the following procedure: A size distribution of an aqueous solution, in which 0.1 to 0.5% of the cyclotriphosphazene-taxol conjugate prepared in Example 1 was dissolved in distilled water, was measured by a DLS method using Malvern Zetasizer (Nano-ZS).

Where [7] appears, read: intravenous infusion 5 mg/kg for 3 minutes, average.

Read-outs that look alike come from different tables or passages of the source.

For the compound `CC(=O)O[C@H]1C(=O)[C@@]2(C)[C@H]([C@H](OC(=O)c3ccccc3)[C@]3(O)C[C@H](OC(=O)[C@H](O)[C@@H](NC(=O)c4ccccc4)c4ccccc4)C(C)=C1C3(C)C)[C@]1(OC(C)=O)CO[C@@H]1C[C@@H]2O` [Taxol (free), Taxol], the IC50 (commonly the concentration that inhibits the measured activity by half) in data set [1] (Homo sapiens, SK-OV-3, free taxol) is 65.8 ± 0.5 nM. Moreover, the IC50 in data set [2] (Homo sapiens, MDA-MB-231, free taxol) worked out at 47.1 ± 12.2 nM. In addition, the IC50 in data set [3] (Homo sapiens, A-431, free taxol) worked out at 25.1 ± 8.9 nM. This compound also had an IC50 in data set [4] (Homo sapiens, MCF7, free taxol) of 39 ± 4.9 nM. Also, the AUC(0-t) (as a rule, the area under the concentration-time curve up to a stated or last time point) in data set [5] (male, Sprague-Dawley, blood, intravenous infusion 5 mg/kg for 3 minutes, average, sampling to 48 hours) came to 1970 ng·h/mL. For the same compound, in data set [5] (male, Sprague-Dawley, blood, intravenous infusion 5 mg/kg for 3 minutes, average, read-out: AUCINF (measurement)), the AUC(0-inf) amounted to 2290 ng·h/mL. Moreover, the C0 in data set [5] (male, Sprague-Dawley, blood, intravenous infusion 5 mg/kg for 3 minutes, average, read-out: C0) is 2700 ng/mL. In data set [5] (setting [7]), this compound yielded an AUClast/AUCINF of 85.9%, a Cl_obs of 556.2 mL/h, a Lambda z of 0.275 h⁻¹ and a Vz_obs of 2778.1 mL. Besides, the t½_Lambda z in data set [5] (setting [7]) was 3.54 h.
On to “[tris(methoxy-polyethyleneglycol350)][tris(glycyllysinemethylester)-mono-2′-succinyltaxol]cyclotriphosphazene [Example 1]”, for which the IC50 in data set [1] (in pure water) came to 503 ± 114 nM; in data set [1] (in saline solution), 138 ± 14.3 nM; in data set [2] (in pure water), 327 ± 54.5 nM; in data set [2] (in saline solution), 108 ± 10.9 nM; in data set [3] (in pure water), 380 ± 89.2 nM; in data set [3] (in saline solution) it was 53.8 ± 13.9 nM. Besides, the IC50 in data set [4] (in pure water) is 447 ± 138 nM; in data set [4] (in saline solution), 129 ± 37.5 nM. Also, the “micelle radius (DLS)” value in data set [6] stood at 105 nm.
On to “[tris(methoxy-polyethyleneglycol550)][tris(glycyllysinemethylester)-mono-2′-succinyltaxol]cyclotriphosphazene [Example 2]”, for which, in data set [5] (setting [7]), the “AUCINF (measurement)” value is given as 2.55, the AUClast/AUCINF turned out to be 77.1%, the C0 was 1530 ng/mL and the Cl_obs is 513.3 mL/h. In data set [5] (setting [7]), this compound gave a Lambda z of 0.133 h⁻¹, a Vz_obs of 4468.9 mL and a t½_Lambda z of 6.29 h. In data set [5] (intravenous infusion 5 mg/kg for 3 minutes, average, sampling to 48 hours), this compound displayed an AUClast of 1970 ng·h/mL. Also, the “in vivo half life relative to free taxol” value in data set [5] (intravenous, compared with free taxol not formulated) is “twice longer”.

The values are drawn from patent publication US20070292384A1, “Water soluble micelle-forming and biodegradable cyclotriphosphazene-taxol conjugate anticancer agent and preparation method thereof” (priority 2006, published 2007).
